Patent US10588317B2, “Isoxazoline-substituted benzamides and analogues as insecticides” (priority 2015, dated 2020)
Like-named read-outs stand apart in the source and are kept apart here.

Key:
Type in all cases: in vivo
[1] = tested on: Spodoptera littoralis; assay: Spodoptera littoralis (Egyptian cotton leaf worm), sprayed cotton leaf discs; conditions: foliar, 72 h, read-out: control (mortality, anti-feeding effect, growth inhibition)
Summary of the method: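 Five first-instar larvae placed on dried cotton leaf discs (on agar) previously sprayed with aqueous dilutions of 10'000 ppm DMSO stocks. Scored at 3 days against untreated discs for mortality, feeding inhibition and growth inhibition; any category above untreated counts as control.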

[2] = tested on: Thrips tabaci; assay: Thrips tabaci (onion thrips): feeding/contact activity; conditions: 144 h
Experimental: (§1) Sunflower leaf discs were placed on agar in 24-well microtiter plates and sprayed with aqueous test solutions prepared from 10'000 ppm DMSO stock solutions. After drying the leaf discs were infested with a Thrips population of mixed ages. The samples were assessed for mortality 6 days after infestation.

[3] = tested on: Myzus persicae; assay: Myzus persicae (green peach aphid): feeding/contact activity; conditions: 144 h
Experimental: Sunflower leaf discs were placed onto agar in a 24-well microtiter plate and sprayed with aqueous test solutions prepared from 10'000 ppm DMSO stock solutions. After drying, the leaf discs were infested with an aphid population of mixed ages. The samples were assessed for mortality 6 days after infestation.

[4] = tested on: Tetranychus urticae; assay: Tetranychus urticae (two-spotted spider mite): feeding/contact activity; conditions: 192 h
Experimental: as §1, with “Bean” for “Sunflower”, “discs” for “discs were placed”, “were” for “and”, “mite” for “Thrips”, “on mixed population (mobile stages) 8” for “6”

[5] = tested on: Plutella xylostella; assay: Plutella xylostella (diamond back moth), artificial diet; conditions: 120 h, read-out: effect in at least one of the two categories (mortality or growth inhibition); for percent effect (mortality or growth inhibition) at 200 ppm: application rate 200 ppm, L2 larvae, 5 days after infestation
Summary of the method: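 L2 larvae (10-15 per well) fed on compound-treated, dried artificial diet; test solutions diluted in water from 10'000 ppm DMSO stocks. Readout 5 days post-infestation as mortality or growth inhibition versus untreated diet, with at least 80% effect at 200 ppm as threshold.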

[6] = tested on: Euschistus heros; assay: Euschistus heros (neotropical brown stink bug), sprayed soybean leaves; conditions: 120 h, read-out: effect in at least one of the two categories (mortality or growth inhibition); for percent effect (mortality or growth inhibition) at 200 ppm: application rate 200 ppm, N2 nymphs, 5 days after infestation
Summary of the method: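 Scored 5 days post-infestation versus untreated controls, for both mortality and growth inhibition: N2 nymphs placed on agar-mounted soybean leaves previously sprayed at 200 ppm with aqueous test solutions from DMSO stocks and left to dry.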

[7] = tested on: Diabrotica balteata; assay: Diabrotica balteata (corn root worm), sprayed maize sprouts; conditions: 96 h, read-out: effect in at least one of the two categories (mortality or growth inhibition); for percent effect (mortality or growth inhibition) at 200 ppm: application rate 200 ppm, L2 larvae, 4 days after infestation
Summary of the method: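 Read-out at 4 days post-infestation: mortality and growth inhibition relative to untreated samples. Test solutions (200 ppm, from DMSO stocks) were sprayed onto agar-held maize sprouts, which after drying received 6–10 L2 larvae per well.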

[8] = application rate 200 ppm, L1 larvae, 3 days after infestation
[9] = application rate 200 ppm, Thrips population of mixed ages, 6 days after infestation, read-out: mortality
[10] = application rate 200 ppm, aphid population of mixed ages, 6 days after infestation, read-out: mortality
[11] = application rate 200 ppm, mixed population (mobile stages), 8 days after infestation, read-out: mortality

Cc1cc(C2=NO[C@@](c3cc(Cl)c(F)c(Cl)c3)(C(F)(F)F)C2)ccc1C(=O)N[C@H]1CON(S(=O)(=O)N(C)CC(F)(F)F)C1 [Compound A150, 4-[(5S)-5-(3,5-dichloro-4-fluoro-phenyl)-5-(trifluoromethyl)-4H-isoxazol-3-yl]-2-methyl-N-[(4R)-2-[methyl(2,2,2-trifluoroethyl)sulfamoyl]isoxazolidin-4-yl]benzamide]
≥ 80%: mortality at 200 ppm [1, 8] | mortality at 200 ppm [2, 9] | mortality at 200 ppm [3, 10] | mortality at 200 ppm [4, 11] | percent effect (mortality or growth inhibition) at 200 ppm [5] | percent effect (mortality or growth inhibition) at 200 ppm [6] | percent effect (mortality or growth inhibition) at 200 ppm [7]

Cc1cc(C2=NO[C@](c3cc(Cl)cc(C(F)(F)F)c3)(C(F)(F)F)C2)ccc1C(=O)N[C@H]1CON(S(=O)(=O)F)C1 [Compound A219]
≥ 80%: mortality at 200 ppm [1] | mortality at 200 ppm [2] | mortality at 200 ppm [3] | mortality at 200 ppm [4] | percent control (mortality or growth inhibition) at 200 ppm [5] | percent control (mortality or growth inhibition) at 200 ppm [6] | percent control (mortality or growth inhibition) at 200 ppm [7]

Cc1cc(C2=NO[C@@](c3cc(Cl)c(C(F)F)c(Cl)c3)(C(F)(F)F)C2)ccc1C(=O)N[C@@H]1CON(S(=O)(=O)N(C)C)C1 [Compound A196, 4-[(5S)-5-[3,5-dichloro-4-(difluoromethyl)phenyl]-5-(trifluoromethyl)-4H-1,2-oxazol-3-yl]-N-[(4S)-2-(dimethylsulfamoyl)-1,2-oxazolidin-4-yl]-2-methylbenzamide]
≥ 80%: mortality at 200 ppm [1, 8] | mortality at 200 ppm [2, 9] | mortality at 200 ppm [3, 10] | mortality at 200 ppm [4, 11] | percent effect (mortality or growth inhibition) at 200 ppm [5] | percent effect (mortality or growth inhibition) at 200 ppm [6] | percent effect (mortality or growth inhibition) at 200 ppm [7]

CCCS(=O)(=O)N1CC(NC(=O)c2ccc(C3=NO[C@@](c4cc(Cl)c(F)c(Cl)c4)(C(F)(F)F)C3)cc2C)CO1 (some centres unmarked) [Compound A3]
≥ 80%: mortality at 200 ppm [1, 8] | mortality at 200 ppm [2, 9] | mortality at 200 ppm [3, 10] | mortality at 200 ppm [4, 11] | percent effect (mortality or growth inhibition) at 200 ppm [5] | percent effect (mortality or growth inhibition) at 200 ppm [6] | percent effect (mortality or growth inhibition) at 200 ppm [7]

Cc1cc(C2=NO[C@](c3ccc(F)c(C(F)(F)F)c3)(C(F)(F)F)C2)ccc1C(=O)N[C@@H]1CON(S(=O)(=O)N(C)C)C1 [Compound A184]
≥ 80%: mortality at 200 ppm [1, 8] | mortality at 200 ppm [2, 9] | mortality at 200 ppm [3, 10] | mortality at 200 ppm [4, 11] | percent effect (mortality or growth inhibition) at 200 ppm [5] | percent effect (mortality or growth inhibition) at 200 ppm [6] | percent effect (mortality or growth inhibition) at 200 ppm [7]

Cc1cc(C2=NO[C@@](c3cc(Cl)cc(Cl)c3)(C(F)(F)F)C2)ccc1C(=O)N[C@H]1CON(S(=O)(=O)F)C1 [Compound A198, (4R)-4-[[4-[(5S)-5-(3,5-dichlorophenyl)-5-(trifluoromethyl)-4H-isoxazol-3-yl]-2-methyl-benzoyl]amino]isoxazolidine-2-sulfonyl fluoride]
≥ 80%: mortality at 200 ppm [1] | mortality at 200 ppm [2] | mortality at 200 ppm [3] | mortality at 200 ppm [4] | percent control (mortality or growth inhibition) at 200 ppm [5] | percent control (mortality or growth inhibition) at 200 ppm [6] | percent control (mortality or growth inhibition) at 200 ppm [7]

Cc1cc(C2=NO[C@@](c3cc(Cl)c(F)c(Cl)c3)(C(F)(F)F)C2)ccc1C(=O)N[C@H]1CON(S(=O)(=O)C(F)F)C1 [Compound A226, 4-[(5S)-5-(3,5-dichloro-4-fluorophenyl)-5-(trifluoromethyl)-4H-1,2-oxazol-3-yl]-N-[(4R)-2-(difluoromethylsulfonyl)-1,2-oxazolidin-4-yl]-2-methylbenzamide]
≥ 80%: mortality at 200 ppm [1, 8] | mortality at 200 ppm [2, 9] | mortality at 200 ppm [3, 10] | mortality at 200 ppm [4, 11] | percent effect (mortality or growth inhibition) at 200 ppm [5] | percent effect (mortality or growth inhibition) at 200 ppm [6] | percent effect (mortality or growth inhibition) at 200 ppm [7]

Cc1cc(C2=NO[C@@](c3cc(Cl)c(F)c(Cl)c3)(C(F)(F)F)C2)ccc1C(=O)N[C@H]1CON(S(=O)(=O)NCC(F)(F)F)C1 [Compound A149, 4-[(5S)-5-(3,5-dichloro-4-fluoro-phenyl)-5-(trifluoromethyl)-4H-isoxazol-3-yl]-2-methyl-N-[(4R)-2-(2,2,2-trifluoroethylsulfamoyl)isoxazolidin-4-yl]benzamide]
≥ 80%: mortality at 200 ppm [1, 8] | mortality at 200 ppm [2, 9] | mortality at 200 ppm [3, 10] | mortality at 200 ppm [4, 11] | percent effect (mortality or growth inhibition) at 200 ppm [5] | percent effect (mortality or growth inhibition) at 200 ppm [6] | percent effect (mortality or growth inhibition) at 200 ppm [7]

CNS(=O)(=O)N1C[C@H](NC(=O)c2ccc(C3=NO[C@@](c4ccc(F)c(C(F)(F)F)c4)(C(F)(F)F)C3)cc2C)CO1 [Compound A181]
≥ 80%: mortality at 200 ppm [1, 8] | mortality at 200 ppm [2, 9] | mortality at 200 ppm [3, 10] | mortality at 200 ppm [4, 11] | percent effect (mortality or growth inhibition) at 200 ppm [5] | percent effect (mortality or growth inhibition) at 200 ppm [6] | percent effect (mortality or growth inhibition) at 200 ppm [7]

CNS(=O)(=O)N1C[C@@H](NC(=O)c2ccc(C3=NO[C@](c4cc(Cl)c(OC(F)F)c(Cl)c4)(C(F)(F)F)C3)cc2C)CO1 [Compound A207, 4-[(5R)-5-[3,5-dichloro-4-(difluoromethoxy)phenyl]-5-(trifluoromethyl)-4H-1,2-oxazol-3-yl]-2-methyl-N-[(4R)-2-(methylsulfamoyl)-1,2-oxazolidin-4-yl]benzamide]
≥ 80%: mortality at 200 ppm [1, 8] | mortality at 200 ppm [2, 9] | mortality at 200 ppm [3, 10] | mortality at 200 ppm [4, 11] | percent effect (mortality or growth inhibition) at 200 ppm [5] | percent effect (mortality or growth inhibition) at 200 ppm [6] | percent effect (mortality or growth inhibition) at 200 ppm [7]

CCN(C(C)C)S(=O)(=O)N1CC(NC(=O)c2ccc(C3=NO[C@@](c4cc(Cl)c(Cl)c(Cl)c4)(C(F)(F)F)C3)cc2C)CO1 (some centres unmarked) [Compound A104]
≥ 80%: mortality at 200 ppm [1, 8] | mortality at 200 ppm [2, 9] | mortality at 200 ppm [3, 10] | mortality at 200 ppm [4, 11] | percent effect (mortality or growth inhibition) at 200 ppm [5] | percent effect (mortality or growth inhibition) at 200 ppm [6] | percent effect (mortality or growth inhibition) at 200 ppm [7]

CCNS(=O)(=O)N1C[C@@H](NC(=O)c2ccc(C3=NO[C@@](c4cc(Cl)c(F)c(Cl)c4)(C(F)(F)F)C3)cc2Cl)CO1 [Compound A124, 2-chloro-4-[(5S)-5-(3,5-dichloro-4-fluoro-phenyl)-5-(trifluoromethyl)-4H-isoxazol-3-yl]-N-[(4R)-2-(ethylsulfamoyl)isoxazolidin-4-yl]benzamide]
≥ 80%: mortality at 200 ppm [1, 8] | mortality at 200 ppm [2, 9] | mortality at 200 ppm [3, 10] | mortality at 200 ppm [4, 11] | percent effect (mortality or growth inhibition) at 200 ppm [5] | percent effect (mortality or growth inhibition) at 200 ppm [6] | percent effect (mortality or growth inhibition) at 200 ppm [7]

Cc1cc(C2=NO[C@](c3cc(Cl)cc(Cl)c3)(C(F)(F)F)C2)ccc1C(=O)N[C@H]1CON(S(=O)(=O)CCl)C1 [Compound A166, N-[(4R)-2-(chloromethylsulfonyl)-1,2-oxazolidin-4-yl]-4-[(5R)-5-(3,5-dichlorophenyl)-5-(trifluoromethyl)-4H-1,2-oxazol-3-yl]-2-methylbenzamide]
≥ 80%: mortality at 200 ppm [1, 8] | mortality at 200 ppm [2, 9] | mortality at 200 ppm [3, 10] | mortality at 200 ppm [4, 11] | percent effect (mortality or growth inhibition) at 200 ppm [5] | percent effect (mortality or growth inhibition) at 200 ppm [6] | percent effect (mortality or growth inhibition) at 200 ppm [7]

Cc1cc(C2=NO[C@](c3cc(Cl)c(F)c(Cl)c3)(C(F)(F)F)C2)ccc1C(=O)N[C@H]1CON(S(=O)(=O)CCl)C1 [Compound A164, N-[(4R)-2-(chloromethylsulfonyl)-1,2-oxazolidin-4-yl]-4-[(5R)-5-(3,5-dichloro-4-fluorophenyl)-5-(trifluoromethyl)-4H-1,2-oxazol-3-yl]-2-methylbenzamide]
≥ 80%: mortality at 200 ppm [1, 8] | mortality at 200 ppm [2, 9] | mortality at 200 ppm [3, 10] | mortality at 200 ppm [4, 11] | percent effect (mortality or growth inhibition) at 200 ppm [5] | percent effect (mortality or growth inhibition) at 200 ppm [6] | percent effect (mortality or growth inhibition) at 200 ppm [7]
